Measurements reported in patent US20090131449A1, “USE OF TRPV1 RECEPTOR ANTAGONISTS FOR TREATING DRY EYE AND OCULAR PAIN” (ALCON RESEARCH, LTD., priority 2007, published 2009).

Legend:
[1] = system: Formalin-Induced Blink Response in Rats; assay: formalin-induced blink response assay (ocular pain); type: in vivo, Sprague-Dawley rats; conditions: rat; for Number of Blinks/1 min Mean ± S.D.: 20 μL topical ocular, 0.1% formalin challenge; for Number of Blinks/1 min Mean ± S.D. / % Inhibition of formalin-induced blink response: pretreatment 5 min; for % Inhibition of formalin-induced blink response: topical ocular; for inhibition of formalin-induced blink response (in words): highest concentration tested (1%)
Method: The effects of two transient receptor potential vanilloid receptor subfamily, member 1 (TRPV1) antagonists on ocular pain in rats were tested using a formalin-induced blink response assay. Sprague-Dawley rats were treated topical ocular with 20 μL of vehicle (maxidex vehicle), N-{4-[6-(4-trifluoromethyl-phenyl)-pyrimidin-4-yloxy]-benzothiazol-2-yl}-acetamide (AL-49975, also known as AMG-517, Amgen Inc., Thousand Oaks, Calif.), or (R)—N-(4-(6-(4-(1-(4-fluorophenyl)ethyl)piperazin-1-yl)pyrimidin-4-yloxy)benzo[d]thiazol-2-yl)acetamide (AL-49976, also known as AMG-628, Amgen Inc., Thousand Oaks, Calif.) to one eye only. After the appropriate pretreatment time of about 5 minutes, 5 μL of 0.1% formalin was applied topical ocular. Each rat was placed in a clear plastic box, and the number of blinks was counted for 1 minute immediately following the formalin challenge.

[2] = system: mechanical blink response in normal rats; assay: corneal anesthetic activity, blinks induced by mechanical touch (Cochet-Bonnet Esthesiometer); type: in vivo, Sprague Dawley rats; conditions: rat; for inhibition of mechanical blink response / topical anesthetic activity (in words): 1% concentration; for Total number of Blinks/Total number of Touches: 20 μl topical ocular, N = 6/group; for Total number of Blinks/Total number of Touches / % Blocked (mechanical blink response): pretreatment 5 min; for % Blocked (mechanical blink response): topical ocular
From the text: Corneal anesthetic effects of TRPV1 antagonists were examined by analyzing suppression of blinks induced by mechanical touch. A Cochet-Bonnet Esthesiometer was used to determine corneal anesthetic activities of the TRPV1 antagonist, AMG-517 (AL-49975), in normal rats. Male Sprague Dawley rats (˜500 g) were divided into groups of 6 each, restrained in a DecapiCone rat restraint, and secured at the posterior with tape. A hole was cut into the cone to expose the right eye. Twenty-four hours prior to the experiment the eyelashes and whiskers were trimmed with scissors. The right eye was dosed with 20 μl of drug or maxidex vehicle, and the timer was set for 5 minutes to allow the rat time to acclimate. The Cochet-Bonnet Esthesiometer fiber was set at 30 mm and perpendicularly touched by a masked observer to the center of the cornea 10 times with a 3 second delay between counts. Blinks were counted with each touch of the fiber, and a total score out of 10 was recorded. If more than one blink occurred in response to a single touch, this event was counted as one blink response.

[3] = 1% conc., *p < 0.05 Dunnett's t-test

SMILES	Number of Blinks/1 min Mean ± S.D. ([1]; 0.01% conc.) [Blinks/1 min]	% Inhibition of formalin-induced blink response ([1]; 0.01% conc.) [%]	Number of Blinks/1 min Mean ± S.D. ([1]; 0.1% conc.) [Blinks/1 min]	% Inhibition of formalin-induced blink response ([1]; 0.1% conc.) [%]	Number of Blinks/1 min Mean ± S.D. ([1]; 1% conc.) [Blinks/1 min]	% Inhibition of formalin-induced blink response [1, 3]	inhibition of formalin-induced blink response (in words) [1]	inhibition of mechanical blink response / topical anesthetic activity (in words) [2]	inhibition of mechanical blink response / topical anesthetic activity (in words) ([2]; listed as AMG-517)	Total number of Blinks/Total number of Touches ([2]; 1%)	% Blocked (mechanical blink response) ([2]; 1%) [%]	Total number of Blinks/Total number of Touches ([2]; 0.5%)	% Blocked (mechanical blink response) ([2]; 0.5%, *p < 0.01 Chi-squared vs. vehicle)	% Blocked (mechanical blink response) ([2]; 0.5%, *p < 0.01 Chi-squared vs. vehicle, listed as proparacaine) [%]
CC(=O)Nc1nc2c(Oc3cc(-c4ccc(C(F)(F)F)cc4)ncn3)cccc2s1 [AL-49975, N-{4-[6-(4-trifluoromethyl-phenyl)-pyrimidin-4-yloxy]-benzothiazol-2-yl}-acetamide]	58 ± 11	20	51 ± 18	29	44 ± 17	39* %	dose-dependent fashion, achieving significant inhibition	did not significantly inhibit the blink response	did not have topical anesthetic activity	54/60	10	–	–	–
CC(=O)Nc1nc2c(Oc3cc(N4CCN([C@H](C)c5ccc(F)cc5)CC4)ncn3)cccc2s1 [AL-49976, (R)—N-(4-(6-(4-(1-(4-fluorophenyl)ethyl)piperazin-1-yl)pyrimidin-4-yloxy)benzo[d]thiazol-2-yl)acetamide]	58 ± 7	19	66 ± 23	9	47 ± 11	35* %	significantly inhibited the pain response	–	–	–	–	–	–	–
CCCOc1ccc(C(=O)OCCN(CC)CC)cc1N [Alcaine, proparacaine, reference compound]	–	–	–	–	–	–	–	–	–	–	–	2/60	97* %	95
